Reference: US20240116845A1, “INDENE COMPOUNDS, PHARMACEUTICAL COMPOSITIONS THEREOF, AND THEIR THERAPEUTIC APPLICATIONS” (NucMito Pharmaceuticals Co., Ltd., priority 2021, published 2024)

What was measured:
Assay type in all cases: cell-based
[1] = tested on: alpha-smooth muscle actin (α-SMA); assay: Inhibition of TGF-β induced expression of alpha-smooth muscle actin in CFSC cells (western blot); conditions: compound at 10 μM, TGF-β (10 ng/mL), 24 hours
Summary of the method: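 Read-out is percent decrease in α-SMA western-blot band intensity, β-actin also probed, relative to TGF-β-only cells. CFSC cells were co-treated for 24 h at 37 °C with 10 ng/mL TGF-β and 10 μM compound in serum-free DMEM.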

[2] = tested on: MDA-MB-231 (breast cancer); assay: Antiproliferative activity, CCK-8 cell viability; conditions: Homo sapiens, 72 h, read-out: Inhibition of Cancerous Cells, MDA-MB-231; for inhibition at 3.3 µM: compound concentration of 3.3 μM; for inhibition at 10 µM: compound concentration of 10 μM; for inhibition at 30 µM: compound concentration of 30 μM
Summary of the method: (§1)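 Viability relative to DMSO controls came from CCK-8 absorbance at 450 nm after 72 h exposure at 37°C. Compound concentrations were 3.3, 10 or 30 μM, in DMEM plus 10% FBS. Results are categorised by inhibition level: at least 50%, 30 to under 50%, or under 30%.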

SW480 (colon cancer) = assay: Antiproliferative activity, CCK-8 cell viability; conditions: Homo sapiens, 72 h, read-out: Inhibition of Cancerous Cells, SW480; for inhibition at 3.3 µM: compound concentration of 3.3 μM; for inhibition at 10 µM: compound concentration of 10 μM; for inhibition at 30 µM: compound concentration of 30 μM
Summary of the method: as §1

[3] = tested on: A549 (lung adenocarcinoma); assay: Antiproliferative activity, CCK-8 cell viability; conditions: Homo sapiens, 72 h, read-out: Inhibition of Cancerous Cells, A549; for inhibition at 3.3 µM: compound concentration of 3.3 μM; for inhibition at 10 µM: compound concentration of 10 μM; for inhibition at 30 µM: compound concentration of 30 μM
HepG2 (liver cancer) = assay: Antiproliferative activity, CCK-8 cell viability; conditions: Homo sapiens, 72 h, read-out: Inhibition of Cancerous Cells, HepG2; for inhibition at 3.3 µM: compound concentration of 3.3 μM; for inhibition at 10 µM: compound concentration of 10 μM; for inhibition at 30 µM: compound concentration of 30 μM
Summary of the method: as §1

HeLa (cervical cancer) = assay: Antiproliferative activity, CCK-8 cell viability; conditions: Homo sapiens, 72 h, read-out: Inhibition of Cancerous Cells, HELA; for inhibition at 3.3 µM: compound concentration of 3.3 μM; for inhibition at 10 µM: compound concentration of 10 μM; for inhibition at 30 µM: compound concentration of 30 μM
[4] = tested on: A431 (epidermoid carcinoma); assay: Antiproliferative activity, CCK-8 cell viability; conditions: Homo sapiens, A-431, 72 h, read-out: Inhibition of Cancerous Cells, A431; for inhibition at 3.3 µM: compound concentration of 3.3 μM; for inhibition at 10 µM: compound concentration of 10 μM; for inhibition at 30 µM: compound concentration of 30 μM
Summary of the method: as §1

[5] = tested on: B16F10 (malignant melanoma); assay: Antiproliferative activity, CCK-8 cell viability; conditions: Mus musculus, B16-F10, 72 h, read-out: Inhibition of Cancerous Cells, B16F10; for inhibition at 3.3 µM: compound concentration of 3.3 μM; for inhibition at 10 µM: compound concentration of 10 μM; for inhibition at 30 µM: compound concentration of 30 μM
Summary of the method: as §1

CC1=C(CC(=O)O)c2cc(F)ccc2/C1=C\c1ccc(F)c(Oc2ccccc2)c1 [Compound D23, 2-[(1Z)-5-Fluoro-1-(4-fluoro-3-(phenoxy)benzylidene)-2-methyl-1H-inden-3-yl]-acetic acid]
< 30%: inhibition at 3.3 µM (SW480 (colon cancer)) | inhibition at 3.3 µM [3] | inhibition at 3.3 µM (HeLa (cervical cancer)) | inhibition at 3.3 µM [4] | inhibition at 3.3 µM [5]
≥ 80%: inhibition at 10 µM [1]
30 to 50%: inhibition at 10 µM (SW480 (colon cancer)) | inhibition at 3.3 µM (HepG2 (liver cancer)) | inhibition at 10 µM [4]
≥ 50%: inhibition at 3.3 µM [2] | inhibition at 10 µM [2] | inhibition at 30 µM [2] | inhibition at 30 µM (SW480 (colon cancer)) | inhibition at 10 µM [3] | inhibition at 30 µM [3] | inhibition at 10 µM (HepG2 (liver cancer)) | inhibition at 30 µM (HepG2 (liver cancer)) | inhibition at 10 µM (HeLa (cervical cancer)) | inhibition at 30 µM (HeLa (cervical cancer)) | inhibition at 30 µM [4] | inhibition at 10 µM [5] | inhibition at 30 µM [5]

CC1=C(CC(=O)N(C)O)c2cc(F)ccc2/C1=C\c1cccc(Oc2ccccc2)c1 [Compound B5, (Z)-2-(5-Fluoro-2-methyl-1-(3-phenoxybenzylidene)-1H-inden-3-yl)-N-hydroxy-N-methylacetamide]
50 to 80%: inhibition at 10 µM [1]
≥ 50%: inhibition at 10 µM [2] | inhibition at 30 µM [2] | inhibition at 10 µM (SW480 (colon cancer)) | inhibition at 30 µM (SW480 (colon cancer)) | inhibition at 10 µM [3] | inhibition at 30 µM [3] | inhibition at 3.3 µM (HepG2 (liver cancer)) | inhibition at 10 µM (HepG2 (liver cancer)) | inhibition at 30 µM (HepG2 (liver cancer)) | inhibition at 10 µM (HeLa (cervical cancer)) | inhibition at 30 µM (HeLa (cervical cancer)) | inhibition at 3.3 µM [4] | inhibition at 10 µM [4] | inhibition at 30 µM [4] | inhibition at 10 µM [5] | inhibition at 30 µM [5]
< 30%: inhibition at 3.3 µM [2] | inhibition at 3.3 µM (HeLa (cervical cancer))
30 to 50%: inhibition at 3.3 µM (SW480 (colon cancer)) | inhibition at 3.3 µM [3] | inhibition at 3.3 µM [5]

CC1=C(CC(=O)O)c2cc(F)ccc2/C1=C/c1ccc(Oc2ccc(F)c(F)c2)cc1 [Compound E1, 2-[(1E)-5-Fluoro-2-methyl-1-({4-[3,4-difluorophenoxy]phenyl}methylidene)-1H-inden-3-yl]acetic acid]
< 30%: inhibition at 3.3 µM [5]
≥ 80%: inhibition at 10 µM [1]
30 to 50%: inhibition at 3.3 µM [3] | inhibition at 3.3 µM (HeLa (cervical cancer)) | inhibition at 3.3 µM [4] | inhibition at 10 µM [5]
≥ 50%: inhibition at 3.3 µM [2] | inhibition at 10 µM [2] | inhibition at 30 µM [2] | inhibition at 3.3 µM (SW480 (colon cancer)) | inhibition at 10 µM (SW480 (colon cancer)) | inhibition at 30 µM (SW480 (colon cancer)) | inhibition at 10 µM [3] | inhibition at 30 µM [3] | inhibition at 3.3 µM (HepG2 (liver cancer)) | inhibition at 10 µM (HepG2 (liver cancer)) | inhibition at 30 µM (HepG2 (liver cancer)) | inhibition at 10 µM (HeLa (cervical cancer)) | inhibition at 30 µM (HeLa (cervical cancer)) | inhibition at 10 µM [4] | inhibition at 30 µM [4] | inhibition at 30 µM [5]

CC1=C(CC(=O)NO)c2cc(F)ccc2/C1=C\c1ccc(C(C)(C)C)cc1 [Compound D42, (Z)-2-(1-(4-(Tert-butyl)benzylidene)-5-fluoro-2-methyl-1H-inden-3-yl)-N-hydroxyacetamide]
50 to 80%: inhibition at 10 µM [1]
30 to 50%: inhibition at 10 µM (HepG2 (liver cancer)) | inhibition at 3.3 µM (HeLa (cervical cancer))
< 30%: inhibition at 3.3 µM (HepG2 (liver cancer))
≥ 50%: inhibition at 3.3 µM [2] | inhibition at 10 µM [2] | inhibition at 30 µM [2] | inhibition at 3.3 µM (SW480 (colon cancer)) | inhibition at 10 µM (SW480 (colon cancer)) | inhibition at 30 µM (SW480 (colon cancer)) | inhibition at 3.3 µM [3] | inhibition at 10 µM [3] | inhibition at 30 µM [3] | inhibition at 30 µM (HepG2 (liver cancer)) | inhibition at 10 µM (HeLa (cervical cancer)) | inhibition at 30 µM (HeLa (cervical cancer)) | inhibition at 3.3 µM [4] | inhibition at 10 µM [4] | inhibition at 30 µM [4] | inhibition at 3.3 µM [5] | inhibition at 10 µM [5] | inhibition at 30 µM [5]

CC1=C(CC(=O)O)c2cc(F)ccc2/C1=C\c1cccc(COc2ccc(C(F)(F)F)cc2)c1 [Compound A21, 2-[(1Z)-5-Fluoro-2-methyl-1-[(3-{[4-(trifluoromethyl)phenoxy]methyl}phenyl)-methylidene]-1H-inden-3-yl]acetic acid]
< 30%: inhibition at 10 µM [1]
30 to 50%: inhibition at 3.3 µM [3] | inhibition at 10 µM [3] | inhibition at 3.3 µM (HepG2 (liver cancer)) | inhibition at 10 µM (HepG2 (liver cancer)) | inhibition at 3.3 µM (HeLa (cervical cancer)) | inhibition at 10 µM (HeLa (cervical cancer)) | inhibition at 3.3 µM [4]
≥ 50%: inhibition at 3.3 µM [2] | inhibition at 10 µM [2] | inhibition at 30 µM [2] | inhibition at 3.3 µM (SW480 (colon cancer)) | inhibition at 10 µM (SW480 (colon cancer)) | inhibition at 30 µM (SW480 (colon cancer)) | inhibition at 30 µM [3] | inhibition at 30 µM (HepG2 (liver cancer)) | inhibition at 30 µM (HeLa (cervical cancer)) | inhibition at 10 µM [4] | inhibition at 30 µM [4] | inhibition at 3.3 µM [5] | inhibition at 10 µM [5] | inhibition at 30 µM [5]

CC1=C(CC(=O)O)c2cc(F)ccc2/C1=C\c1cccc(CN(C)c2ccccc2)c1 [Compound A16, 2-[(1Z)-5-Fluoro-2-methyl-1-[(3-{[methyl(phenyl)amino]methyl}phenyl)-methylidene]-1H-inden-3-yl]acetic acid]
< 30%: inhibition at 3.3 µM (HepG2 (liver cancer)) | inhibition at 3.3 µM [4] | inhibition at 3.3 µM [5] | inhibition at 10 µM [5]
≥ 80%: inhibition at 10 µM [1]
≥ 50%: inhibition at 10 µM [2] | inhibition at 30 µM [2] | inhibition at 3.3 µM (SW480 (colon cancer)) | inhibition at 10 µM (SW480 (colon cancer)) | inhibition at 30 µM (SW480 (colon cancer)) | inhibition at 10 µM [3] | inhibition at 30 µM [3] | inhibition at 30 µM (HepG2 (liver cancer)) | inhibition at 10 µM (HeLa (cervical cancer)) | inhibition at 30 µM (HeLa (cervical cancer)) | inhibition at 10 µM [4] | inhibition at 30 µM [4] | inhibition at 30 µM [5]
30 to 50%: inhibition at 3.3 µM [2] | inhibition at 3.3 µM [3] | inhibition at 10 µM (HepG2 (liver cancer)) | inhibition at 3.3 µM (HeLa (cervical cancer))

CC1=C(CC(=O)O)c2cc(F)cc(F)c2/C1=C/c1ccc(Oc2ccc(F)cc2)cc1 [Compound E4, 2-[(1E)-5,7-Difluoro-2-methyl-1-({4-[4-fluorophenoxy]phenyl}methylidene)-1H-inden-3-yl]acetic acid]
≥ 50%: inhibition at 3.3 µM [2] | inhibition at 10 µM [2] | inhibition at 30 µM [2] | inhibition at 10 µM (SW480 (colon cancer)) | inhibition at 30 µM (SW480 (colon cancer)) | inhibition at 30 µM [3] | inhibition at 3.3 µM (HepG2 (liver cancer)) | inhibition at 10 µM (HepG2 (liver cancer)) | inhibition at 30 µM (HepG2 (liver cancer)) | inhibition at 10 µM (HeLa (cervical cancer)) | inhibition at 30 µM (HeLa (cervical cancer)) | inhibition at 10 µM [4] | inhibition at 30 µM [4] | inhibition at 3.3 µM [5] | inhibition at 10 µM [5] | inhibition at 30 µM [5]
30 to 50%: inhibition at 10 µM [3] | inhibition at 3.3 µM (HeLa (cervical cancer))
< 30%: inhibition at 3.3 µM (SW480 (colon cancer)) | inhibition at 3.3 µM [3] | inhibition at 3.3 µM [4]
≥ 80%: inhibition at 10 µM [1]
